Test results: US10059674B2, “Design, synthesis, and biological evaluation of 1-methyl-1, 4-dihyrdoindeno[1,2-C]pyrazole analogues as potential anticaner agents targeting tubulin colchicine binding site” (ACT PHARMA CO., LTD., priority 2016, dated 2018)
Read-outs that look alike come from different tables or passages of the source. Values belong to the compound of their own block, whether it stands above or below them.

Experiments:
MDCK cells [1] = test system: MDCK cells
[2] = MDCK cell permeability test; conditions: dog, MDCK, 90 min; for Papp A→B at 90 min: Apparent permeability coefficient A→B; for Papp B→A at 90 min: Apparent permeability coefficient B→A
in vitro [3] = conditions: rat, microsomes, pH 7.47
P-gp = experiment: MDCK cell permeability test; conditions: dog, MDCK
MDCK cells [4] = experiment: MDCK cell permeability test
in vitro [5] = conditions: monkey, microsomes, pH 7.47
[6] = test system: human hepatocellular carcinoma (HepG2) cells; experiment: Anti-proliferation test (MTT colorimetry); format: cell-based; conditions: HepG2, 72 h
Experimental: (§1) The compound of formula 1 (prepared in embodiment 1), and the compound of formula 2 (prepared in embodiment 2) are given at different concentrations to human hepatocellular carcinoma (HepG2) cells, human prostate carcinoma (PC3) cells, human cervical carcinoma (HeLa) cells, human breast adenocarcinoma (MCF-7) cells, and human leukemia (K562) cells; all the groups are incubated 72 h in an incubator containing 5% of CO2 at 37° C., and then inhabitation ratios of the compounds to the tumor cells are measured by using methyl thiazolyl tetrazolium (MTT) colorimetry, and results are shown in table 1.

[7] = test system: human prostate carcinoma (PC3) cells; experiment: Anti-proliferation test (MTT colorimetry); format: cell-based; conditions: PC-3, PC3, 72 h
Experimental: as §1

[8] = test system: human leukemia (K562) cells; experiment: Anti-proliferation test (MTT colorimetry); format: cell-based; conditions: K562, 72 h
Experimental: as §1

[9] = test system: human breast adenocarcinoma (MCF-7) cells; experiment: Anti-proliferation test (MTT colorimetry); format: cell-based; conditions: MCF7, MCF-7, 72 h
Experimental: as §1

[10] = test system: human cervical carcinoma (HeLa) cells; experiment: Anti-proliferation test (MTT colorimetry); format: cell-based; conditions: 72 h
Experimental: as §1

tubulin = experiment: Tubulin polymerization experiment (Cytoskeleton Tubulin Polymerization Assay Kit); format: biochemical
Experimental: The tubulin polymerization experiment is carried out according to the specifications of Tubulin Polymerization Assay Kit of Cytoskeleton Corporation.

[11] = Liver microsomal metabolism stability test; conditions: mouse
in vitro [12] = conditions: mouse, liver microsomes, pH 7.47
in vitro [13] = conditions: human, microsomes, pH 7.47
in vitro [14] = conditions: dog, microsomes, pH 7.47
[15] = Liver microsomal metabolism stability test; conditions: rat, microsomes, pH 7.47
[16] = Recovery rate A→B, 2nd line of the compound (condition not given)
[17] = Recovery rate A→B, 1st line of the compound (condition not given; method: without / with 10 μM cyclosporine A)
[18] = Recovery rate B→A, 1st line of the compound (condition not given)
[19] = Recovery rate B→A, 2nd line of the compound (condition not given)
[20] = 1st line of the compound (condition not given)
[21] = 2nd line of the compound (condition not given)

PGP substrate judgment (MDCK cells [1]): Yes | recovery at 90 min [2, 16]: 95.4% | recovery at 90 min [2, 17]: 106% | recovery at 90 min [2, 18]: 102% | recovery at 90 min [2, 19]: 100%
Structure (SMILES): CC(C)CN(C[C@@H](O)[C@H](Cc1ccccc1)NC(=O)O[C@H]1CCOC1)S(=O)(=O)c1ccc(N)cc1 [Amprenavir, amprenavir, reference compound]

half-life at 1 µM (in vitro [3]): 24 min | microsomal CLint at 1 µM (in vitro [3]): 57.7 µL/min/mg | Papp A→B at 90 min [2, 20]: 7.4 ×10⁻⁶ cm/s | Papp A→B at 90 min [2, 21]: 12.4 ×10⁻⁶ cm/s | Papp B→A at 90 min [2, 20]: 32.6 ×10⁻⁶ cm/s | Papp B→A at 90 min [2, 21]: 6.9 ×10⁻⁶ cm/s | recovery at 90 min [2, 16]: 59.2% | recovery at 90 min [2, 17]: 89.4% | recovery at 90 min [2, 18]: 91.3% | recovery at 90 min [2, 19]: 79.4% | efflux ratio at 90 min (P-gp): 4.4 | PGP substrate judgment (MDCK cells [4]; MDCK cells): is the PGP substrate and Yes | Permeability Judgment (MDCK cells [4]; MDCK cells): moderate permeability | Efllux ratio (MDCK cells [4]; Papp(B→A)/Papp(A→B), 2nd line of the compound (condition not given)): 0.6 | half-life at 1 µM (in vitro [5]): 1.3 min | microsomal CLint at 1 µM (in vitro [5]): 1070 µL/min/mg | IC50 [6]: 16.4 nM | IC50 [7]: 23.5 nM | IC50 [8]: 8.33 nM | IC50 [9]: 3.36 nM | IC50 [10]: 13.2 nM | IC50 (tubulin; read-out: tubulin polymerization inhibiting IC50): 5330 nM | metabolism in the liver microsomes (in words) [11]: faster | half-life at 1 µM (in vitro [12]): 17.8 min | microsomal CLint at 1 µM (in vitro [12]): 78 µL/min/mg | half-life at 1 µM (in vitro [13]): 12.9 min | microsomal CLint at 1 µM (in vitro [13]): 108 µL/min/mg | half-life at 1 µM (in vitro [14]): 7.5 min | microsomal CLint at 1 µM (in vitro [14]): 185 µL/min/mg
Structure (SMILES): CCOc1cccc(Nc2nn(C)c3c2Cc2cc(OCC)c(OCC(=O)NO)cc2-3)c1 [LL-02]
inhibition of tubulin polymerization (in words) (tubulin; FIGS. 1 and 2): able to inhibit tubulin polymerization

Structure (SMILES): COc1ccc2[nH]c([S+]([O-])Cc3ncc(C)c(OC)c3C)nc2c1 (stereo not shown) [omeprazole, reference compound]
microsomal CLint at 1 µM (in vitro [3]): 88.3 µL/min/mg | half-life at 1 µM [15]: 15.7 min
